These results are taken from patent publication US20090264401A1, “SUBSTITUTED PYRIMIDIN-5-CARBOXAMIDES 281” (AstraZeneca AB, priority 2008, published 2009).

The target of this experiment is T1, human 11βHSD1 enzyme (Homo sapiens, UniProt P28845).
T1 construct: baculovirus expressed N terminal 6-His tagged full length human 11βHSD1 enzyme; 6-His (N); made in house
The experiment is described as follows: 11βHSD1 cortisone to cortisol conversion, competitive HTRF assay. It is filed as biochemical. Conditions: human 11-βHSD; test concentration of 30 μM of compound. In a few lines: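 Enzyme was baculovirus-expressed, N-terminal 6-His-tagged full-length human 11βHSD1, purified on a copper chelate column. Compounds were added in buffer containing 1% DMSO at 10-fold final concentration.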

T1 sequence (P28845 whole entry): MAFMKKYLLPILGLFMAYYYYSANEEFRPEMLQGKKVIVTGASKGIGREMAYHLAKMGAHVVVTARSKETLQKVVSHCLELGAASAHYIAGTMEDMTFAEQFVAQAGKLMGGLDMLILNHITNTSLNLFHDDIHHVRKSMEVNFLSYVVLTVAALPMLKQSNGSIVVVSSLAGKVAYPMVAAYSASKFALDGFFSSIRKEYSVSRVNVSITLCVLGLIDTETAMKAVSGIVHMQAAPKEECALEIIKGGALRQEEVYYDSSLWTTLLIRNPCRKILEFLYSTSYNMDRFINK

Usually inhibition stands for the relative decrease from the control value, in per cent. As to `NC1(c2ncc(C(=O)N[C@H]3C4CC5CC3C[C@@](O)(C5)C4)c(C3CCCC3)n2)CC1` [Example 151, 2-(1-Aminocyclopropyl)-4-cyclopentyl-N-[(2r,5s)-5-hydroxyadamantan-2-yl]pyrimidine-5-carboxamide], the inhibition at 30 µM is 101%.
Take `NCc1ncc(C(=O)N[C@H]2C3CC4CC2C[C@@](O)(C4)C3)c(C2CCCC2)n1` [Example 152, 2-(Aminomethyl)-4-cyclopentyl-N-[(2r,5s)-5-hydroxyadamantan-2-yl]pyrimidine-5-carboxamide]: the inhibition at 30 µM amounted to 97.8%.
On to `Cc1ncc(C(=O)N[C@H]2C3CC4CC2C[C@@](O)(C4)C3)c(C2CC(F)(F)C2)n1` [Example 153, 4-(3,3-difluorocyclobutyl)-N-[(2s,5r)-5-hydroxyadamantan-2-yl]-2-methylpyrimidine-5-carboxamide], for which the inhibition at 30 µM stood at 91.7%.
As for `CNc1ncc(C(=O)N[C@H]2C3CC4CC2C[C@@](O)(C4)C3)c(C2CC(F)(F)C2)n1` [Example 154, 4-(3,3-difluorocyclobutyl)-N-[(2r,5s)-5-hydroxyadamantan-2-yl]-2-methylaminopyrimidine-5-carboxamide], the figure is 88%; as for `O=C(N[C@H]1C2CC3CC1C[C@@](O)(C3)C2)c1cnc(NC2CC2)nc1C1CC(F)(F)C1` [Example 155, 2-(cyclopropylamino)-4-(3,3-difluorocyclobutyl)-N-[(2r,5s)-5-hydroxyadamantan-2-yl]pyrimidine-5-carboxamide], 92.6%.
As for `C[C@@H]1CN(c2ncc(C(=O)N[C@H]3C4CC5CC3C[C@@](O)(C5)C4)c(C3CC(F)(F)C3)n2)C[C@H](C)O1` [Example 156, 4-(3,3-difluorocyclobutyl)-2-[(2S,6R)-2,6-dimethylmorpholin-4-yl]-N-[(2r,5s)-5-hydroxyadamantan-2-yl]pyrimidine-5-carboxamide], the inhibition at 30 µM worked out at 65.5%.
As for `O=C(N[C@H]1C2CC3CC1C[C@@](O)(C3)C2)c1cnc(OC2CCC2)nc1C1CC(F)(F)C1` [Example 157], the figure is 87.1%; as for `Cc1ncc(C(=O)N[C@H]2C3CC4CC2C[C@@](O)(C4)C3)c(C2CCCO2)n1` (stereo partly shown) [Example 158, N-[(2r,5s)-5-hydroxyadamantan-2-yl]-2-methyl-4-(oxolan-2-yl)pyrimidine-5-carboxamide], 96.5%.
Regarding `CC(C)Nc1ncc(C(=O)N[C@H]2C3CC4CC2C[C@@](O)(C4)C3)c(C2CCCO2)n1` (stereo partly shown) [Example 159, N-[(2r,5s)-5-hydroxyadamantan-2-yl]-4-(oxolan-2-yl)-2-(propan-2-ylamino)pyrimidine-5-carboxamide], the inhibition at 30 µM stood at 98.2%.
`O=C(N[C@H]1C2CC3CC1C[C@@](O)(C3)C2)c1cnc(NC2CC2)nc1C1CCCO1` (stereo partly shown) [Example 160, 2-(cyclopropylamino)-N-[(2r,5s)-5-hydroxyadamantan-2-yl]-4-(oxolan-2-yl)pyrimidine-5-carboxamide]: the inhibition at 30 µM is 104%.
For the molecule `CNc1ncc(C(=O)N[C@H]2C3CC4CC2C[C@@](O)(C4)C3)c(C2CCCO2)n1` (stereo partly shown) [Example 161, N-[(2r,5s)-5-hydroxyadamantan-2-yl]-2-methylamino-4-(oxolan-2-yl)pyrimidine-5-carboxamide], the inhibition at 30 µM stood at 105%.
In the case of `O=C(N[C@H]1C2CC3CC1C[C@@](O)(C3)C2)c1cnc(NC2CCC2)nc1C1CCCO1` (stereo partly shown) [Example 162, 2-(cyclobutylamino)-N-[(2r,5s)-5-hydroxyadamantan-2-yl]-4-(oxolan-2-yl)pyrimidine-5-carboxamide], the inhibition at 30 µM is 97.7%.
On to `O=C(N[C@H]1C2CC3CC1C[C@@](O)(C3)C2)c1cnc(NC2COC2)nc1C1CCCO1` (stereo partly shown) [Example 164, N-[(2r,5s)-5-hydroxyadamantan-2-yl]-2-(oxetan-3-ylamino)-4-(oxolan-2-yl)pyrimidine-5-carboxamide], for which the inhibition at 30 µM came out at 98.9%.
As to `CC(C)Oc1ncc(C(=O)N[C@H]2C3CC4CC2C[C@@](O)(C4)C3)c(C2CCCO2)n1` (stereo partly shown) [Example 165], the inhibition at 30 µM was 105%.
For `CSc1ncc(C(=O)N[C@H]2C3CC4CC2C[C@@](O)(C4)C3)c([C@H]2CCCO2)n1` [Example 166, N-[(2r,5s)-5-hydroxyadamantan-2-yl]-2-methylsulfanyl-4-[(2R)-oxolan-2-yl]pyrimidine-5-carboxamide], the inhibition at 30 µM was determined as 102%.
Turning to `CNc1ncc(C(=O)N[C@H]2C3CC4CC2C[C@@](O)(C4)C3)c([C@H]2CCCO2)n1` [Example 167, N-[(2r,5s)-5-hydroxyadamantan-2-yl]-2-methylamino-4-[(2R)-oxolan-2-yl]pyrimidine-5-carboxamide], the inhibition at 30 µM turned out to be 101%.
As to `O=C(N[C@H]1C2CC3CC1C[C@@](O)(C3)C2)c1cnc(NC2CC2)nc1[C@H]1CCCO1` [Example 170, 2-(cyclopropylamino)-N-[(2r,5s)-5-hydroxyadamantan-2-yl]-4-[(2R)-oxolan-2-yl]pyrimidine-5-carboxamide], the inhibition at 30 µM was determined as 94.4%.
For `CC(C)Nc1ncc(C(=O)N[C@H]2C3CC4CC2C[C@@](O)(C4)C3)c([C@H]2CCCO2)n1` [Example 171, N-[(2r,5s)-5-hydroxyadamantan-2-yl]-4-[(2R)-oxolan-2-yl]-2-(propan-2-ylamino)pyrimidine-5-carboxamide] the value was 103%; for `C[C@@H]1CN(c2ncc(C(=O)N[C@H]3C4CC5CC3C[C@@](O)(C5)C4)c([C@H]3CCCO3)n2)C[C@H](C)N1` [Example 172, 2-[(3S,5R)-3,5-dimethylpiperazin-1-yl]-N-[(2r,5s)-5-hydroxyadamantan-2-yl]-4-[(2R)-oxolan-2-yl]pyrimidine-5-carboxamide], 97.2%; for `O=C(N[C@H]1C2CC3CC1C[C@@](O)(C3)C2)c1cnc(NC2COC2)nc1[C@H]1CCCO1` [Example 173, N-[(2r,5s)-5-hydroxyadamantan-2-yl]-2-(oxetan-3-ylamino)-4-[(2R)-oxolan-2-yl]pyrimidine-5-carboxamide], 101%.
`O=C(N[C@H]1C2CC3CC1C[C@@](O)(C3)C2)c1cnc(NC2CCOCC2)nc1[C@H]1CCCO1` [Example 174, N-[(2r,5s)-5-hydroxyadamantan-2-yl]-2-(oxan-4-ylamino)-4-[(2R)-oxolan-2-yl]pyrimidine-5-carboxamide]: the inhibition at 30 µM is 95%.
In the case of `O=C(N[C@H]1C2CC3CC1C[C@@](O)(C3)C2)c1cnc(NC2CCC2)nc1[C@H]1CCCO1` [Example 175, 2-(cyclobutaylamino)-N-[(2r,5s)-5-hydroxyadamantan-2-yl]-4-[(2R)-oxolan-2-yl]pyrimidine-5-carboxamide], the inhibition at 30 µM was 103%.
For `CC(C)Oc1ncc(C(=O)N[C@H]2C3CC4CC2C[C@@](O)(C4)C3)c([C@H]2CCCO2)n1` [Example 176] the value was 97.9%; for `CSc1ncc(C(=O)N[C@H]2C3CC4CC2C[C@@](O)(C4)C3)c([C@@H]2CCCO2)n1` [Example 177, N-[(2r,5s)-5-hydroxyadamantan-2-yl]-2-methylsulfanyl-4-[(2S)-oxolan-2-yl]pyrimidine-5-carboxamide], 95.8%; for `CNc1ncc(C(=O)N[C@H]2C3CC4CC2C[C@@](O)(C4)C3)c([C@@H]2CCCO2)n1` [Example 178, N-[(2r,5s)-5-hydroxyadamantan-2-yl]-2-methylamino-4-[(2S)-oxolan-2-yl]pyrimidine-5-carboxamide], 95.3%.
Regarding `CC(C)Nc1ncc(C(=O)N[C@H]2C3CC4CC2C[C@@](O)(C4)C3)c([C@@H]2CCCO2)n1` [Example 179, N-[(2r,5s)-5-hydroxyadamantan-2-yl]-4-[(2S)-oxolan-2-yl]-2-(propan-2-ylamino)pyrimidine-5-carboxamide], the inhibition at 30 µM turned out to be 95.1%.
For `O=C(N[C@H]1C2CC3CC1C[C@@](O)(C3)C2)c1cnc(NC2CC2)nc1[C@@H]1CCCO1` [Example 180, 2-(cyclopropylamino)-N-[(2r,5s)-5-hydroxyadamantan-2-yl]-4-[(2S)-oxolan-2-yl]pyrimidine-5-carboxamide] the value was 98.8%; for `CC(C)Oc1ncc(C(=O)N[C@H]2C3CC4CC2C[C@@](O)(C4)C3)c([C@@H]2CCCO2)n1` [Example 181], 95%.
As for `Cc1ncc(C(=O)N[C@H]2C3CC4CC2C[C@@](O)(C4)C3)c(C2CCC(F)(F)C2)n1` (stereo partly shown) [Example 184, 4-(3,3-Difluorocyclopentyl)-N-[(2r,5s)-5-hydroxyadamantan-2-yl]-2-methylpyrimidine-5-carboxamide], the figure is 108%.
As to `COc1ncc(C(=O)NC2C3CC4CC2CC(O)(C4)C3)c(C2(C)CC2)n1` (stereo not shown) [Example 187, N-[(2r,5 s)-5-hydroxyadamantan-2-yl]-2-methoxy-4-(1-methylcyclopropyl)pyrimidine-5-carboxamide], the inhibition at 30 µM amounted to 99%.
Consider `Cc1ncc(C(=O)N[C@H]2C3CC4CC2C[C@@](O)(C4)C3)c(-c2ccccc2Cl)n1` [Example 189, 4-(2-Chlorophenyl)-N-[(2r,5s)-5-hydroxyadamantan-2-yl]-2-methylpyrimidine-5-carboxamide], for which the inhibition at 30 µM turned out to be 95.5%.
As for `Cc1ncc(C(=O)N[C@H]2C3CC4CC2C[C@@](O)(C4)C3)c(CC(C)(C)C)n1` [Example 193, 4-(2,2-Dimethylpropyl)-N-[(2r,5s)-5-hydroxyadamantan-2-yl]-2-methylpyrimidine-5-carboxamide], the figure is 102%.
For `CSc1ncc(C(=O)N[C@H]2C3CC4CC2C[C@@](O)(C4)C3)c(C2CCCCC2)n1` [Example 195, 4-Cyclohexyl-N-[(2r,5 s)-5-hydroxyadamantan-2-yl]-2-(methylthio)pyrimidine-5-carboxamide] the value was 103%.
With `O=C(N[C@H]1C2CC3CC1C[C@@](O)(C3)C2)c1cnc(N2CCSCC2)nc1C1CCCCC1` [Example 196, 4-Cyclohexyl-N-[(2r,5 s)-5-hydroxyadamantan-2-yl]-2-thiomorpholin-4-ylpyrimidine-5-carboxamide], the inhibition at 30 µM is 99.8%.
